Experimental data reported in paper PMC6788984, “High-potency ligands for DREADD imaging and activation in rodents and monkeys” (Nature Communications, 2019).
Values joined by “and” are separate entries in the source; they are usually repeats but may differ in a detail not shown here. Identical values can stand only once. Like-named read-outs stand apart in the source and are kept apart here.

Key:
P-gp = target: T1, P-gp (Homo sapiens, UniProt P08183); assay: P-glycoprotein (P-gp) substrate assay in Caco-2 cells with and without verapamil; type: in vitro ADME; conditions: Caco-2, efflux ratio with/without verapamil
T1 construct: host or cells: Caco-2
Experimental: These experiments were performed by an outside vendor (Eurofins, France). C21 was tested in P-gp substrate assessment assays at 10 µM. The A to B and B to A permeability was measured in Caco-2 cells in the presence and absence of verapamil, a P-gp inhibitor. Efflux ratios (E) were calculated based on the apparent B–A and A–B permeability with and without verapamil. In each experiment, the respective reference compound was tested concurrently with the test compound to assess the assay reliability. Fluorescein was used as the cell monolayer integrity marker. Fluorescein permeability assessment (in the A–B direction at pH 7.4 on both sides) was performed after the permeability assay for the test compound.

[1] = Brain and serum concentrations in mice after IP injection (LC-MS/MS); type: in vivo, mouse; conditions: for Kp: C57BL/6J, mouse, brain/serum, ip, 0.1 mg kg-1, mice, read-out: brain/serum concentration ratio; for Kp / brain to serum concentration ratio / brain concentration, mean / serum concentration, mean: 0.1 mg kg-1 IP; for brain to serum concentration ratio: 30 min; for brain/serum concentration ratio: 1 mg kg-1 IP
Experimental: Monkey blood and CSF samples were collected from totally implanted subcutaneous access ports (Access Technologies, Virginia), connected to catheters indwelling in the femoral artery or intrathecal space of the spinal column, respectively. Rodent blood samples and brains were collected immediately following sacrifice at the indicated time points after intraperitoneal injection (10 ml kg^−1) in buffered saline. CSF was immediately frozen on dry ice and stored at −80 °C. Blood samples were allowed to coagulate for 15 min and then centrifuged at 4 °C for 15 min. Serum was collected from the supernatant and stored at a minimum of −30 °C until extraction. To 25 µl of serum, 5 µl of internal standard and 110 µl of methanol were added. Samples were centrifuged for 10 min at 16,200×g at 4 °C and the supernatant was transferred to the autosampler vial for analysis. Brains were cut in half and weighed prior to sample preparation. Half brains were homogenized in 490 µl of 85% ethanol: 15% water containing 0.1% formic acid and 5 µl of internal standard using a polytron homogenizer and centrifuged for 10 min at 16,200×g at 4 °C. A 300 µl of supernatant was dried under a stream of nitrogen and resuspended in 150 µl methanol. The resuspended solution was then centrifuged and 100 µl of supernatant was transferred to the autosampler vial for analysis.
Data were acquired using a Nexera XR HPLC (Shimadzu) coupled with a QTRAP 6500 (SCIEX), and was analyzed with Analyst 1.6 (SCIEX). The positive-ion mode data were obtained using multiple reaction monitoring (MRM). The instrumental source setting for curtain gas, ion spray voltage, temperature, ion source gas 1, and ion source gas 2 were 30 psi, 5500 V, 500 C, […], respectively.
Mobile phase A consisted of water containing 0.1% formic acid and mobile phase B was methanol containing 0.1% formic acid. […] The injection volume per sample was 10 μl. Samples were kept at 4 °C in the autosampler tray prior to injection.
The data were measured using standard curves and quality controls, but it was not validated to ICH guidelines. […] Quality control standards (low, middle and high) were prepared by adding the spiking standard to solution to 25 μl of serum and/or a half-brain and relative values are reported.

WT mice = assay: [18F]FDG PET metabolic mapping in WT mice; type: in vivo, mouse
Experimental: Mice (D1-hM3Dq, D1-hM4Di or WT littermates, see above) were habituated to experimenter handling and fasted 16 h before the experiment. On the day of the experiment, mice received an IP injection of vehicle (1 ml kg^−1) and were placed back into their home cages. Ten minutes later, mice were injected (IP) with 11 MBq of 2-deoxy-2-[^18F]fluoro-D-glucose (FDG, Cardinal Health) and placed back into their home cages. After 30 min, mice were anesthetized with 1.5% isoflurane, placed on a custom-made bed of a nanoScan small animal PET/CT scanner (Mediso Medical Imaging Systems) and scanned for 20 min on a static acquisition protocol, followed by a CT scan. […] Voxel-based repeated measures with Student’s t test comparing baseline to drug were performed, and the resulting parametric images were filtered for statistically significant (p < 0.05) clusters larger than 100 contiguous voxels. All statistical parametric mapping analyses were performed using Matlab R2016 (Mathworks) and SPM12 (University College London).

striatal DREADDs = assay: [11C]clozapine PET DREADD occupancy in AAV-DREADD mice; conditions: for occupancy of striatal DREADDs: 0.1 mg kg-1 IP
Experimental: Animals were anesthetized with isoflurane or a mix of ketamine/xylazine and prepped on a stereotaxic apparatus (Kopf, Germany). […] When indicated, animals were pretreated with vehicle or the indicated drug 10 min before the injection of the PET radiotracer. Total acquisition time was 60 min.
In all cases, the PET data were reconstructed and corrected for dead-time and radioactive decay. All qualitative and quantitative assessments of PET images were performed using the PMOD software environment (PMOD Technologies, Zurich Switzerland). Binding potential BPND (a relative measure of specific binding) was calculated using a reference tissue model using the cerebellum as a reference tissue in rodents. In macaques, the kinetic data were fitted to a two-tissue compartment model and the concentration of parent in plasma was used as an input function, then the volume of distribution ratios compared to cerebellum were calculated to establish BPND. In all cases, the dynamic PET images were coregistered to MRI templates and time-activity curves were generated using predefined volumes of interest (macaques) or manually drawn in rodents and the described analyses were performed. Receptor occupancy was calculated using the formula: occupancy = (BPND^0 − BPND^Drug)/BPND^0 × 100, where BPND^0 is the binding potential of the baseline condition and BPND^Drug the binding potential when the animals were pretreated with the drug.

hM3Dq = hM3Dq (Homo sapiens, UniProt P20309, A239G/Y149C); assay: Locomotor activity in TH-hM3Dq rats; type: in vivo, rat; design: host or cells: TH-expressing neurons of the ventral tegmental area in TH:Cre rats (AAV transduction, in vivo); conditions: for hM3Dq-stimulated locomotion: 0.01-0.3 mg kg-1
Experimental: Tyrosine hydroxylase (TH):Cre rats (n = 9; founder, K. Deisseroth lab) or WT littermates (n = 9) were bilaterally injected with AAV2 hSyn-DIO-hM3Dq-mCherry (1ul/hemisphere, Addgene), and allowed to recover for 2 + weeks. […] Vehicle was administered on 2 separate days, and average locomotion was used for comparison with DREADD agonists. Cohort 2 underwent the same procedures, but with a 4 h testing session, and the following IP injections: vehicle (x2), JHU37152 (0.01–0.3 mg kg^−1), JHU37160 (0.01–0.3 mg kg^−1). All drugs were dissolved in 5% DMSO in saline, and injected 1 ml kg^−1.

Sequence of hM3Dq (P20309 whole entry Y149C/A239G): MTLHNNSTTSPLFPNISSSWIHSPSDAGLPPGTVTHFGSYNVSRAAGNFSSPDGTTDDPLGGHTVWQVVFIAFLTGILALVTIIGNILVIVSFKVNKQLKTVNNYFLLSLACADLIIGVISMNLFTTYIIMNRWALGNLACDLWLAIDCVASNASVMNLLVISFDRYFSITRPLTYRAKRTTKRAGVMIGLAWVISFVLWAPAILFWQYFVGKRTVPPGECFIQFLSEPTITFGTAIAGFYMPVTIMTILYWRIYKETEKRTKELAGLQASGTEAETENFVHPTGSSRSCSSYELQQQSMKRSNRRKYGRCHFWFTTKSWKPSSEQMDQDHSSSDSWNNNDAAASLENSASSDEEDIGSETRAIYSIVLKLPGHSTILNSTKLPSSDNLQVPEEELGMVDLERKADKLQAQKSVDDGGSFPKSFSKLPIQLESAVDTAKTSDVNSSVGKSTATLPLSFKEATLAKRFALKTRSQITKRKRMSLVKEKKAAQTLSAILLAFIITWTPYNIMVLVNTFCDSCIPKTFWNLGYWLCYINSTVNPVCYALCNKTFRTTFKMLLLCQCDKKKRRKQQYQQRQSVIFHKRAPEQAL
T1 sequence (P08183 whole entry): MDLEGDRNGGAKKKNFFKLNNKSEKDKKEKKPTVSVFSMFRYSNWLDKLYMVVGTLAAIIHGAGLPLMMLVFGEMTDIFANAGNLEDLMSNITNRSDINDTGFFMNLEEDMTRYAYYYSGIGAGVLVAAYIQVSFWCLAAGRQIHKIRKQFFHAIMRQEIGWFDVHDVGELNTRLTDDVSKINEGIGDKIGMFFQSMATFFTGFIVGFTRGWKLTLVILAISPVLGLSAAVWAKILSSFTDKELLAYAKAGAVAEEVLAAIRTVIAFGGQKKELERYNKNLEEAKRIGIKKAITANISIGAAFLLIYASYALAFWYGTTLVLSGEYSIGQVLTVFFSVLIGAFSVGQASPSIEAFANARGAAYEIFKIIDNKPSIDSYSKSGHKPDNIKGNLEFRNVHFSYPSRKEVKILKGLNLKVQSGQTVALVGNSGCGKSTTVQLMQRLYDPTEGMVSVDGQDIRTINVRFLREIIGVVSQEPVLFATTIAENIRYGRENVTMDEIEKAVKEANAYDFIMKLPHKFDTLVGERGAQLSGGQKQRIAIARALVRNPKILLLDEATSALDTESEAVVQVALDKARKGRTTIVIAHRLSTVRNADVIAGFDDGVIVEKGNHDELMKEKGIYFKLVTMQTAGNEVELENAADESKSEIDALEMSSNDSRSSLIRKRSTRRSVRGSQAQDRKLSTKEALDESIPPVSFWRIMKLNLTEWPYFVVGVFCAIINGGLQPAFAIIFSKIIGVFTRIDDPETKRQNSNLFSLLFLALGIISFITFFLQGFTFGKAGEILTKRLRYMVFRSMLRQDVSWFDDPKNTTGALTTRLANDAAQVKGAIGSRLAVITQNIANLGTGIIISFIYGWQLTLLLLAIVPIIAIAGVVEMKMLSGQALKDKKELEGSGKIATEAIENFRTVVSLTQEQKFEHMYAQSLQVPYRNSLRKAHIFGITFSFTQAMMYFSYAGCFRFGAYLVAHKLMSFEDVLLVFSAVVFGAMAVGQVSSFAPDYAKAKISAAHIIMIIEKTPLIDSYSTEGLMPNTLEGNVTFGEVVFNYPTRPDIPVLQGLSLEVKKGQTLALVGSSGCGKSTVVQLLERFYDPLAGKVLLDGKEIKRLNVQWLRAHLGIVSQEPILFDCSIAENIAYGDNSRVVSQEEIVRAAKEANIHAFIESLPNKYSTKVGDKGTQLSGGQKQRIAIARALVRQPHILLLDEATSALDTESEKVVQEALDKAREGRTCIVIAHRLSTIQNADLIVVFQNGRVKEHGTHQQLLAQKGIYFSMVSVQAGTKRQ

Row | SMILES | P-gp substrate (P-gp) | Kp ([1]; time 10) | Kp ([1]; time 30) | Kp ([1]; time 60) | Kp ([1]; time 120) | Kp ([1]; time 240) | brain to serum concentration ratio ([1]; mice) | brain concentration, mean ([1]; mice, time 10) | serum concentration, mean ([1]; mice, time 10) | brain concentration, mean ([1]; mice, time 30) | serum concentration, mean ([1]; mice, time 30) | brain concentration, mean ([1]; mice, time 60) | serum concentration, mean ([1]; mice, time 60) | brain concentration, mean ([1]; mice, time 120) | serum concentration, mean ([1]; mice, time 120) | brain concentration, mean ([1]; mice, time 240) | serum concentration, mean ([1]; mice, time 240) | occupancy of striatal DREADDs (striatal DREADDs) | hM3Dq-stimulated locomotion (hM3Dq; TH-hM3Dq rats) | other results
1 | CCN1CCN(C2=Nc3cc(Cl)ccc3Nc3c(F)cccc32)CC1 [JHU37160, 8-Chloro-11-(4-ethylpiperazin-1-yl)-4-fluoro-5H-dibenzo[b,e][1,4]diazepine] | Neither JHU37152 nor JHU37160 were P-gp substrates | 6.45 | 8.48 | 12.9 | 9.72 | 15.4 | ~eightfold higher in the brain than serum | 15.2721 | 2.637 | 9.242 | 1.58 | 8.73 | 0.7534 | 8.1596 | 0.8413 | 3.199 | 0.319 | 15–20% | robust, selective increases in hM3Dq-stimulated locomotion | P-gp substrate (P-gp; listed as J60): none of these compounds is a substrate for P-gp; brain metabolic activity ([18F]FDG) (WT mice; 0.1 mg/kg): no significant brain metabolic changes; brain metabolic activity ([18F]FDG) (WT mice; 0.1 mg/kg, listed as J60, 0.1 mg/kg): did not show any significant changes in brain metabolic activity; Locomotor activity, individual animals (Figure 3 Panel G) (hM3Dq; dose 0.01, listed as J60): 279.417 and 1024.06 and 48.7042 and 167.624 and 1237.61 and 111.992 and 663.301; Locomotor activity, individual animals (Figure 3 Panel G) (hM3Dq; dose 0.1, listed as J60): 1035.55 and 900.553 and 68.6081 and 759.611 and 1367.43 and 667.9 and 184.82
2 | c1ccc2c(c1)N=C(N1CCNCC1)c1ccccc1N2 [C21] | none of these compounds is a substrate for P-gp | – | – | – | – | – | – | – | – | – | – | – | – | – | – | – | – | – | – | brain/serum concentration ratio ([1]; mice, time 10): 0.1059; brain/serum concentration ratio ([1]; mice, time 30): 0.2543; brain/serum concentration ratio ([1]; mice, time 60): 0.2987; brain/serum concentration ratio ([1]; mice, time 120): 0.4106; brain/serum concentration ratio ([1]; mice, time 240): 0.6284; brain/serum ratio ([1]; mice, systemic administration): low brain/serum ratios; brain metabolic activity ([18F]FDG) (WT mice; 1 mg/kg IP, 1 mg/kg): significant changes in brain metabolic activity; brain metabolic activity ([18F]FDG) (WT mice; 1 mg/kg IP, listed as Compound 21, 1 mg/kg): decreased metabolic activity of multiple networks; in vivo DREADD occupancy ([11C]CLZ displacement) (striatal DREADDs; 1 mg/kg IP): ~ 10%; locomotor activity (hM3Dq; TH-hM3Dq rats, 1 or 5 mg/kg IP): significant increases in locomotor activity
3 | CCN1CCN(C2=Nc3cc(Cl)ccc3Nc3cccc(F)c32)CC1 [JHU37152, 8-Chloro-11-(4-ethylpiperazin-1-yl)-1-fluoro-5H-dibenzo[b,e][1,4]diazepine] | Neither JHU37152 nor JHU37160 were P-gp substrates | 3.52 | 6.76 | 5.99 | 4.52 | 3.05 | ~eightfold higher in the brain than serum | 58.5075 | 16.6091 | 52.9484 | 6.63 | 40.9216 | 6.9214 | 7.985 | 2.387 | 2.907 | 1.533 | 15–20% | robust, selective increases in hM3Dq-stimulated locomotion | P-gp substrate (P-gp; listed as J52): none of these compounds is a substrate for P-gp; Locomotor activity, individual animals (Figure 3 Panel G) (hM3Dq; dose 0.01, listed as J52): 94.7443 and 207.479 and 64.3586 and 274.036 and 1667.81 and 1211.25 and 111.862; Locomotor activity, individual animals (Figure 3 Panel G) (hM3Dq; dose 0.1, listed as J52): 1115.35 and 940.001 and 366.654 and 337.558 and 1635.37 and 694.852 and 547.724
